Values quoted from earlier work, collected in patent US20070160648A1, “Methods for treating otic disorders” (pSivida Inc., priority 2002, published 2007).

Compound: [H]/N=C(/N)N[C@H]1[C@H](O)[C@@H](O)[C@H](O[C@@H]2O[C@@H](C)[C@](O)(C=O)[C@H]2O[C@@H]2O[C@@H](CO)[C@H](O)[C@@H](O)[C@@H]2NC)[C@@H](N/C(N)=N\[H])[C@@H]1O [streptomycin]
- patients displaying some vestibular impairment (one gram of streptomycin daily for 60 to 120 days): 25%
- incidence of vestibular impairment (two grams per day): 75%
